Source: patent publication US20110039763A1, “TARGETED ANTIMICROBIAL MOIETIES” (C3 JIAN, INC., priority 2009, published 2011)

Key:
microorganisms [1] = assay: Peptide activities: targeting/binding, antimicrobial, growth or phenotype altering (Tables 7, 8); type: cell-based; conditions: peptides having multiple activities
microorganisms [2] = assay: Morphology, biofilm and growth disrupting peptides (Table 5); type: cell-based; design: key: A: Peptide aggregates; B: Less hyphal formation; Clumps; Diffuse clumps and small polyps; F: Diffuse growth; H: Thin; I: Growth inhibition; Microcolony formation; Rippled; Small polyps; Thick; W: Halo formation on top, microlonies on bottom
Excerpt: In certain embodiments peptides that induce alterations in phenotype or other biological activities can also be used as antimicrobial effector moieties.

Substance | Activities (microorganisms [1]) | Organism, effect (microorganisms [2]; E. coli) | Organism, effect (microorganisms [2]; M. luteus) | Organism, effect (microorganisms [2]; MRSA) | Organism, effect (microorganisms [2]; S. epidermidis) | Organism, effect (microorganisms [2]; S. mutans) | Organism, effect (microorganisms [2]; S. pneumoniae) | Organism, effect (microorganisms [2]; E. faecalis) | Organism, effect (microorganisms [2]; B. subtilis) | Organism, effect (microorganisms [2]; C. jeikeium) | Organism, effect (microorganisms [2]; C. jejuni) | Organism, effect (microorganisms [2]; P. aeruginosa) | Organism, effect (microorganisms [2]; P. mirabilis) | Organism, effect (microorganisms [2]; C. albicans)
PF-543: peptide having multiple activities (NILFGIIGFVVAMTAAVIVTAISIAK; Peptide with targeting and/or antimicrobial activity) | G B | E. coli (C) | M. luteus (C) | MRSA (D) | S. epidermidis (D) | S. mutans (S) | S. pneumoniae (D) |  |  |  |  |  |  | 
PF-544: peptide having multiple activities (FGEKQMRSWWKVHWFHP; Peptide with targeting and/or antimicrobial activity) | G B |  |  | MRSA (D) | S. epidermidis (D) |  | S. pneumoniae (M) | E. faecalis (R) |  |  |  |  |  | 
PF-548: peptide having multiple activities (ARPIADLIHFNSTTVTASGDVYYGPG; Peptide with targeting and/or antimicrobial activity) | G B |  | M. luteus (A) | MRSA (M) | S. epidermidis (M) |  | S. pneumoniae (D) |  | B. subtilis (C) | C. jeikeium (R) | C. jejuni (D) |  |  | 
PF-556: peptide having multiple activities (SLQIRMNTLTAAKASIEAA; Peptide with targeting and/or antimicrobial activity) | G B |  | M. luteus (A) | MRSA (M) | S. epidermidis (A) |  | S. pneumoniae (D) | E. faecalis (A) | B. subtilis (C) | C. jeikeium (D) | C. jejuni (R) |  |  | 
PF-562: peptide having multiple activities (TPEQWLERSTVVVTGLLNRK; Peptide with targeting and/or antimicrobial activity) | G B |  | M. luteus (R) | MRSA (M) | S. epidermidis (A) |  | S. pneumoniae (D) |  |  |  | C. jejuni (R) |  |  | 
PF-577: peptide having multiple activities (PFETRESFRVPVIGILGGWDYFMHP; Peptide with targeting and/or antimicrobial activity) | G B | E. coli (A) |  | MRSA (M) | S. epidermidis (A) |  | S. pneumoniae (R) | E. faecalis (A) |  |  | C. jejuni (R) | P. aeruginosa (A) |  | 
PF-578: peptide having multiple activities (QKANLRIGFTYTSDSNVCNLTFALLGSK; Peptide with targeting and/or antimicrobial activity) | G B | E. coli (C) | M. luteus (C) | MRSA (C) | S. epidermidis (D) | S. mutans (D) | S. pneumoniae (D) |  |  |  |  |  | P. mirabilis (C) | 
PF-581: peptide having multiple activities (WTARARR; Peptide with targeting and/or antimicrobial activity) | G B |  |  | MRSA (A) |  |  | S. pneumoniae (A) | E. faecalis (A) |  |  | C. jejuni (A) |  |  | 
PF-586: peptide having multiple activities (chain 1 FFNQANYFFKEF; chain 2 FFNQANYFFKEF; Peptide with targeting and/or antimicrobial activity) | G B | E. coli (C) |  | MRSA (D) | S. epidermidis (C) |  | S. pneumoniae (D) | E. faecalis (D) |  |  | C. jejuni (D) |  |  | 
PF-592: peptide having multiple activities (chain 1 IMKNYKYFKLFIVKYALF; chain 2 IMKNYKYFKLFIVKYALF; Peptide with targeting and/or antimicrobial activity) | G B | E. coli (C) |  | MRSA (D) | S. epidermidis (M) |  | S. pneumoniae (D) | E. faecalis (D) |  |  | C. jejuni (S) |  |  | 
PF-595: peptide having multiple activities (chain 1 LQNKIYELLYIKERSKLCS; chain 2 LQNKIYELLYIKERSKLCS; Peptide with targeting and/or antimicrobial activity) | G B | E. coli (C) |  | MRSA (D) | S. epidermidis (C) |  | S. pneumoniae (R) | E. faecalis (D) |  |  | C. jejuni (D) |  |  | 
PF-596: peptide having multiple activities (chain 1 SKMWDKILTILILILELIRELIKL; chain 2 SKMWDKILTILILILELIRELIKL; Peptide with targeting and/or antimicrobial activity) | G B | E. coli (C) |  | MRSA (D) | S. epidermidis (D) |  | S. pneumoniae (D) | E. faecalis (D) |  |  | C. jejuni (D) |  |  | 
PF-605: peptide having multiple activities (chain 1 HYRWNTQWWKY; chain 2 HYRWNTQWWKY; Peptide with targeting and/or antimicrobial activity) | G B | E. coli (C) |  | MRSA (C) | S. epidermidis (R) |  | S. pneumoniae (D) | E. faecalis (R) |  |  | C. jejuni (R) | P. aeruginosa (A) |  | C. albicans (B)
PF-610: peptide having multiple activities (chain 1 VFLKLKTSKIDLASIIFYP; chain 2 VFLKLKTSKIDLASIIFYP; Peptide with targeting and/or antimicrobial activity) | G B | E. coli (C) |  | MRSA (D) | S. epidermidis (C) |  | S. pneumoniae (D) | E. faecalis (D) |  |  | C. jejuni (D) |  |  | 
PF-615: peptide having multiple activities (chain 1 FLNRFIFYIFTVKTKSALIKNLFLD; chain 2 FLNRFIFYIFTVKTKSALIKNLFLD; Peptide with targeting and/or antimicrobial activity) | G B | E. coli (C) |  | MRSA (D) | S. epidermidis (D) |  | S. pneumoniae (D) | E. faecalis (D) |  |  | C. jejuni (D) |  |  | 
